Data published in patent US8765721B2, “Composition comprising phosphatidyl serine and an antigen or allergen and the use thereof” (Vaccine Technology Limited, priority 2004, dated 2014).

Assays:
Assay type in all cases: in vivo, rat
IgG2a = assay: Ovalbumin-specific IgG2a ELISA of serum of immunised rats; details: pooled group serum
Protocol: (§1) Rats were injected with vaccine compositions comprising the ovalbumin antigen with and without di-oleoyl phosphatidyl serine, lyso-oleoyl phosphatidyl serine or stearoyl(X1)-arachidonoyl(X2) phosphatidyl serine and the concentrations of IgE, IgA and IgG are compared.
(§2) The animals were acclimatised for a period of 5 days prior to dosing. During the acclimatisation period animals were observed twice daily during the working week and once on each day during the weekend to evaluate the health status of the animals. Rats were then allocated to the following dose groups using computer-generated random order numbers.
(§3) On day 0, 20 μg of ovalbumin (OA) in phosphate buffered saline (PBS) with alhydrogel (AHG) adjuvant in a final volume of 0.5 mL was administered.
(§4) On days 21 and 42, 20 μg of ovalbumin (OA) in phosphate buffered saline (PBS) with the relevant test compound in a final volume of 0.5 ml was administered.
(§5) In each case, 0.5 mL of inoculum was injected subcutaneously into the scruff of the neck. […]
(§6) Serum was prepared by centrifugation of the blood sample at 2,500 rpm for 10 minutes and frozen at −20° C. The samples were then analysed by ELISA to establish the concentration of IgE, IgA and IgG1, IgG2a and IgG2b.
(§7) The purpose of an ELISA is to determine whether a particular protein is present in a sample and then enables quantification of how much is present. By coating the bottom of wells with ovalbumin (OVA) it is possible to bind anti-OVA specific antibodies. To detect only anti-OVA IgA antibodies anti-rat IgA conjugated to HRP was used as a secondary antibody. Quantification of specific antibodies in the rat sera samples was performed using antibody titrations. The data was reported as endpoint titers. Endpoint titers are defined as the last serum dilution giving an optical density value equal to twice the background optical density for the ELISA plate (buffer).

IgG1 = assay: Ovalbumin-specific IgG1 ELISA of serum of immunised rats; details: pooled group serum
Protocol: as §1, §2, §3, §4, §5, §6
as §7, with “To detect only anti-OVA IgA antibodies anti-rat IgA conjugated to HRP was used as a secondary antibody.” left out

IgE [1] = assay: Ovalbumin-specific IgE ELISA of serum of immunised rats; details: Day 1; 250 ug with 20 μg Ova s.c. on days 21 and 42; pooled group serum
IgA [2] = assay: Ovalbumin-specific IgA ELISA of serum of immunised rats; details: Day 1; 50 ug with 20 μg Ova s.c. on days 21 and 42; pooled group serum
IgE [3] = assay: Ovalbumin-specific IgE ELISA of serum of immunised rats; details: pooled group serum
Protocol: as §1, §2, §3, §4
(§8) In each case, 0.5 mL of inoculum was injected subcutaneously into the scruff of the neck.
(§9) […] A blood sample was also taken from each animal on Days 15, 22, 29, 36, 43, 50, 57 and 64.
as §6, §7

IgA [4] = assay: Ovalbumin-specific IgA ELISA of serum of immunised rats; details: pooled group serum
Protocol: as §1, §2, §3, §4, §8
On Day 0 a pre-inoculation blood sample was taken. A blood sample was also taken from each animal on Days 15, 22, 29, 36, 43, 50, 57 and 64.
as §6, §7

IgG2b = assay: Ovalbumin-specific IgG2b ELISA of serum of immunised rats; details: pooled group serum
Protocol: as §1, §2, §3, §4, §8, §9, §6, §7

[5] = Day 1, 50 ug with 20 μg Ova s.c. on days 21 and 42
[6] = Day 1, 250 ug with 20 μg Ova s.c. on days 21 and 42
[7] = Day 15, 50 ug with 20 μg Ova s.c. on days 21 and 42
[8] = Day 15, 250 ug with 20 μg Ova s.c. on days 21 and 42
[9] = Day 22, 50 ug with 20 μg Ova s.c. on days 21 and 42
[10] = Day 22, 250 ug with 20 μg Ova s.c. on days 21 and 42
[11] = Day 29, 50 ug with 20 μg Ova s.c. on days 21 and 42
[12] = Day 29, 250 ug with 20 μg Ova s.c. on days 21 and 42
[13] = Day 36, 50 ug with 20 μg Ova s.c. on days 21 and 42
[14] = Day 36, 250 ug with 20 μg Ova s.c. on days 21 and 42
[15] = Day 43, 50 ug with 20 μg Ova s.c. on days 21 and 42
[16] = Day 43, 250 ug with 20 μg Ova s.c. on days 21 and 42
[17] = Day 50, 50 ug with 20 μg Ova s.c. on days 21 and 42
[18] = Day 50, 250 ug with 20 μg Ova s.c. on days 21 and 42
[19] = Day 57, 50 ug with 20 μg Ova s.c. on days 21 and 42
[20] = Day 57, 250 ug with 20 μg Ova s.c. on days 21 and 42
[21] = Day 64, 50 ug with 20 μg Ova s.c. on days 21 and 42
[22] = Day 64, 250 ug with 20 μg Ova s.c. on days 21 and 42

CCCCCCCC/C=C\CCCCCCCC(=O)OC[C@@H](O)COP(=O)(O)OC[C@H](N)C(=O)O [VT002, Lyso oleoyl phosphatidyl serine]
0: IgG2a endpoint titer (IgG2a; [5]) | IgG2a endpoint titer (IgG2a; [6]) | IgG1 endpoint titer (IgG1; [5]) | IgG1 endpoint titer (IgG1; [6]) | IgE endpoint titer (IgE [1]) | IgA endpoint titer (IgA [2]) | IgE endpoint titer (IgE [3]; [5]) | IgE endpoint titer (IgE [3]; [7]) | IgE endpoint titer (IgE [3]; [8]) | IgE endpoint titer (IgE [3]; [9]) | IgE endpoint titer (IgE [3]; [10]) | IgE endpoint titer (IgE [3]; [12]) | IgA endpoint titer (IgA [4]; [6]) | IgA endpoint titer (IgA [4]; [7]) | IgA endpoint titer (IgA [4]; [8]) | IgA endpoint titer (IgA [4]; [9]) | IgA endpoint titer (IgA [4]; [10]) | IgA endpoint titer (IgA [4]; [11]) | IgA endpoint titer (IgA [4]; [12]) | IgG2b endpoint titer (IgG2b; [5]) | IgG2b endpoint titer (IgG2b; [6]) | IgG2b endpoint titer (IgG2b; [7]) | IgG2b endpoint titer (IgG2b; [9])
20: IgE endpoint titer (IgE [3]; [14])
80: IgG2a endpoint titer (IgG2a; [8]) | IgE endpoint titer (IgE [3]; [11]) | IgE endpoint titer (IgE [3]; [15]) | IgA endpoint titer (IgA [4]; [14]) | IgG2b endpoint titer (IgG2b; [10])
2560: IgG2a endpoint titer (IgG2a; [11]) | IgG2a endpoint titer (IgG2a; [14]) | IgG2a endpoint titer (IgG2a; [16]) | IgG1 endpoint titer (IgG1; [9]) | IgG1 endpoint titer (IgG1; [10]) | IgA endpoint titer (IgA [4]; [17]) | IgA endpoint titer (IgA [4]; [21]) | IgG2b endpoint titer (IgG2b; [19]) | IgG2b endpoint titer (IgG2b; [22])
640: IgG2a endpoint titer (IgG2a; [10]) | IgG1 endpoint titer (IgG1; [8]) | IgE endpoint titer (IgE [3]; [18]) | IgG2b endpoint titer (IgG2b; [15]) | IgG2b endpoint titer (IgG2b; [16]) | IgG2b endpoint titer (IgG2b; [17])
10240: IgG1 endpoint titer (IgG1; [11]) | IgG1 endpoint titer (IgG1; [16])
160: IgE endpoint titer (IgE [3]; [20]) | IgE endpoint titer (IgE [3]; [21]) | IgE endpoint titer (IgE [3]; [22]) | IgA endpoint titer (IgA [4]; [13]) | IgA endpoint titer (IgA [4]; [16]) | IgG2b endpoint titer (IgG2b; [11])
5120: IgG2a endpoint titer (IgG2a; [13]) | IgG2a endpoint titer (IgG2a; [15]) | IgG1 endpoint titer (IgG1; [12]) | IgG2b endpoint titer (IgG2b; [18]) | IgG2b endpoint titer (IgG2b; [20])
40: IgG2a endpoint titer (IgG2a; [7]) | IgE endpoint titer (IgE [3]; [13]) | IgE endpoint titer (IgE [3]; [16]) | IgG2b endpoint titer (IgG2b; [8]) | IgG2b endpoint titer (IgG2b; [12])
1280: IgG2a endpoint titer (IgG2a; [9]) | IgG2a endpoint titer (IgG2a; [12]) | IgE endpoint titer (IgE [3]; [17]) | IgA endpoint titer (IgA [4]; [18]) | IgA endpoint titer (IgA [4]; [19]) | IgA endpoint titer (IgA [4]; [20]) | IgA endpoint titer (IgA [4]; [22]) | IgG2b endpoint titer (IgG2b; [21])
320: IgG1 endpoint titer (IgG1; [7]) | IgE endpoint titer (IgE [3]; [19]) | IgA endpoint titer (IgA [4]; [15]) | IgG2b endpoint titer (IgG2b; [13]) | IgG2b endpoint titer (IgG2b; [14])
20480: IgG2a endpoint titer (IgG2a; [17]) | IgG2a endpoint titer (IgG2a; [18]) | IgG2a endpoint titer (IgG2a; [19]) | IgG2a endpoint titer (IgG2a; [20]) | IgG2a endpoint titer (IgG2a; [21]) | IgG2a endpoint titer (IgG2a; [22]) | IgG1 endpoint titer (IgG1; [13]) | IgG1 endpoint titer (IgG1; [14]) | IgG1 endpoint titer (IgG1; [15]) | IgG1 endpoint titer (IgG1; [18])
40960: IgG1 endpoint titer (IgG1; [17]) | IgG1 endpoint titer (IgG1; [19]) | IgG1 endpoint titer (IgG1; [20]) | IgG1 endpoint titer (IgG1; [21]) | IgG1 endpoint titer (IgG1; [22])
